Experimental findings from patent US10065963B2 (Incyte Corporation, priority 2015, dated 2018) are described below.

By IC50 is commonly meant the concentration that gives 50% inhibition.

Counter-ions that a name gives are not always drawn. Like-named read-outs stand apart in the source and are kept apart here.

Experiment [1] concerns the target human JAK1 (a.a. 837-1142) (Homo sapiens, UniProt P23458). Put plainly: In vitro JAK kinase assay (JAK1). Type of experiment: biochemical. To be noted: 1 mM ATP.
Experiment [2] concerns the target human JAK2 (a.a. 828-1132) (Homo sapiens (Human), UniProt O60674). Put plainly: In vitro JAK kinase assay (JAK2). Type of experiment: biochemical. Conditions: IC50 ratio, 1 mM ATP.
Experiment [3] concerns the target PI3Kγ (p110γ) Recombinant Human Protein (Homo sapiens (Human), UniProt P48736). Put plainly: PI3K-γ scintillation proximity assay. To be noted: 2 μM ATP, 20 μM PIP2. Type of experiment: biochemical.
The target in experiment [4] is PI3Kδ (p110δ/p85α) Recombinant Human Protein (Homo sapiens (Human), UniProt O00329). The experiment in a line: PI3Kδ scintillation proximity assay. Conditions: 2 μM ATP, 20 μM PIP2. Type of experiment: biochemical.
PI3Kδ (p110δ/p85α) Recombinant Human Protein, sequence (O00329 whole entry): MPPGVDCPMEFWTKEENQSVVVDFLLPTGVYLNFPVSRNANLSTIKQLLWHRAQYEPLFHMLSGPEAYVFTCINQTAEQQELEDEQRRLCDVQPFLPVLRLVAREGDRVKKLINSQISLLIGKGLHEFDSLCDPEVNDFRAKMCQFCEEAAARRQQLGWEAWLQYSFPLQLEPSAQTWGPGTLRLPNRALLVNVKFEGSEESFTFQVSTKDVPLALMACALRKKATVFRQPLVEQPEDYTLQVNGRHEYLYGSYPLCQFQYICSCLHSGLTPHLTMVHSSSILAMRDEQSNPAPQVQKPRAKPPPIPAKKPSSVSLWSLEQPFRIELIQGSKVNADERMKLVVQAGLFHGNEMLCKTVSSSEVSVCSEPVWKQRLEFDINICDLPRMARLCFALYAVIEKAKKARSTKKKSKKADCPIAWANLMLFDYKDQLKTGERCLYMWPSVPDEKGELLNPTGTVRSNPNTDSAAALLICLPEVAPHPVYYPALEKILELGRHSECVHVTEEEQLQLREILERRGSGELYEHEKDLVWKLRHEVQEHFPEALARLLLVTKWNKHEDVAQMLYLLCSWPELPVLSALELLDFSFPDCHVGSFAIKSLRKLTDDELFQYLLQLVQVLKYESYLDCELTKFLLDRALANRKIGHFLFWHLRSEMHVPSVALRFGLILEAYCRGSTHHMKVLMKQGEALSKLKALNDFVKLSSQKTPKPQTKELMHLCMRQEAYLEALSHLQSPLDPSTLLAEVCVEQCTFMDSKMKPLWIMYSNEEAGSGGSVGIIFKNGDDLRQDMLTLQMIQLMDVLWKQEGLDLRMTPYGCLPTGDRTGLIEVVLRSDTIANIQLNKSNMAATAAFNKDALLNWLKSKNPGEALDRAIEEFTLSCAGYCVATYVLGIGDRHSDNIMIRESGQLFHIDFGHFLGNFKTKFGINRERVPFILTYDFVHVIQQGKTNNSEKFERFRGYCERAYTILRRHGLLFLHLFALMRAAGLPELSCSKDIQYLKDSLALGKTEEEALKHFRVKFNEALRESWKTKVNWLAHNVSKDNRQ
PI3Kδ (p110δ/p85α) Recombinant Human Protein, sequence (P27986 whole entry partner): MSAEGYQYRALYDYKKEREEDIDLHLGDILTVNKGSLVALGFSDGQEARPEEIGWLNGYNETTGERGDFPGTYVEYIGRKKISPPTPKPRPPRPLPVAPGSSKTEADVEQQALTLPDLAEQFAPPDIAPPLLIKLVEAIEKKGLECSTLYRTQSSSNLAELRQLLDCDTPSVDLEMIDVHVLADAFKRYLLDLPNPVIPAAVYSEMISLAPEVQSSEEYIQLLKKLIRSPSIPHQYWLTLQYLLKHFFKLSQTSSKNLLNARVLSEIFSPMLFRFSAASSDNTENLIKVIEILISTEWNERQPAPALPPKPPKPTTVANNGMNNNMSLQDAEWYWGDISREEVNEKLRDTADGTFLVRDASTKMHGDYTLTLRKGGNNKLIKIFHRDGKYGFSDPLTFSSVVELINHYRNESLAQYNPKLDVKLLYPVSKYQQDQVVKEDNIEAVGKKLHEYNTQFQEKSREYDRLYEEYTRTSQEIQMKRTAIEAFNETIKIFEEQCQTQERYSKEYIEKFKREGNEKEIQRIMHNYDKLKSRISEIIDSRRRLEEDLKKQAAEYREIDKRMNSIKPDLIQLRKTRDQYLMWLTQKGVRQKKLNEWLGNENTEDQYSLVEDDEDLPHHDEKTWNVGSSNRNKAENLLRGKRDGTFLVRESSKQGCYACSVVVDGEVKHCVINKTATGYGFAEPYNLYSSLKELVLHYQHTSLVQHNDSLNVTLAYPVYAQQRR
Experiment [5] relates to Phosphorylated Ribosomal Protein S6 (RPS6) in THP-1 cells. The experiment in a line: THP-1 RPS6 ELISA assay. Type of experiment: cell-based, human. Conditions: 10 nM MCP-1, read-out: PI3Kγ_THP1_RPS6_ELISA IC50. (In general: In an ELISA, binding on a coated surface is turned into a signal by an enzyme label.)
Setting [6] is: Homo sapiens, THP-1, THP-1 cells.

PI3Kγ (p110γ) Recombinant Human Protein, sequence (P48736 whole entry): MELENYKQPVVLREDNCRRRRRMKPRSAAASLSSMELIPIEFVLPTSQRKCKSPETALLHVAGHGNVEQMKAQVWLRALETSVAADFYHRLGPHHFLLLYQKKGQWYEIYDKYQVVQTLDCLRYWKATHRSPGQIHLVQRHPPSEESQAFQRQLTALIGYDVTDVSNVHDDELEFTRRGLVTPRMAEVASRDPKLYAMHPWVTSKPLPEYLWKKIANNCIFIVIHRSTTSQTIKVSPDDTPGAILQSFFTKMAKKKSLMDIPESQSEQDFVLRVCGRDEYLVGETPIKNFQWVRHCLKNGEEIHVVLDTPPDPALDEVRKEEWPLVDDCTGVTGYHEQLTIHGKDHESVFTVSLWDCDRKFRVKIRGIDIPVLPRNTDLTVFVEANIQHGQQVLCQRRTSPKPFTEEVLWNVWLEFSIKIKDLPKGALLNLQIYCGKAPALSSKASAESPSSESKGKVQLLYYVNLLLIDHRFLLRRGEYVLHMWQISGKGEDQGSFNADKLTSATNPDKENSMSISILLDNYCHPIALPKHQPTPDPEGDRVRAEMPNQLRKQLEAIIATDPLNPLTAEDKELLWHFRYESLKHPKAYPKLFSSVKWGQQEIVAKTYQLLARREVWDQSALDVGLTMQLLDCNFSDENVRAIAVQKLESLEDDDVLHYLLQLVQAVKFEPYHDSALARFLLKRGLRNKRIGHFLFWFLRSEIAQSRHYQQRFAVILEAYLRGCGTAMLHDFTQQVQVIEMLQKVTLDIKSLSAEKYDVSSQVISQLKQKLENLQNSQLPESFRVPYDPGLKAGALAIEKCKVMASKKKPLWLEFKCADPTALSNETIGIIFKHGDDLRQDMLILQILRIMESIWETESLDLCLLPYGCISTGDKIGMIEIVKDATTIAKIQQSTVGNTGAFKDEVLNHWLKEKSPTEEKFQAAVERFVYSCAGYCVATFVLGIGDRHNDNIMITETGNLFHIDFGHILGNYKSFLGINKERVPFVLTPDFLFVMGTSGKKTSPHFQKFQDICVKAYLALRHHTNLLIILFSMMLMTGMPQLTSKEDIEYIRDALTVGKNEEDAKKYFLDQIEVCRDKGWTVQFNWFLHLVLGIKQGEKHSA
human JAK2 (a.a. 828-1132), sequence (O60674 828-1132): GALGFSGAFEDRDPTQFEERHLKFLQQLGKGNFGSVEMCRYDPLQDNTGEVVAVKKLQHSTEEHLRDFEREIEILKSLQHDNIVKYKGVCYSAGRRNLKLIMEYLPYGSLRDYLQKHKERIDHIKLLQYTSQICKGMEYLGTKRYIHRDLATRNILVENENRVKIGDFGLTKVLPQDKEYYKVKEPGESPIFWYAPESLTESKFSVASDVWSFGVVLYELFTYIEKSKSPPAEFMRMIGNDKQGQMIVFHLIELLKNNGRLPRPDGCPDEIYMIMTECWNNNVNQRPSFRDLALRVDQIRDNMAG

In experiment [1], `N#CCC(C1CCN(c2cccc(Cl)n2)C1)n1cc(-c2ncnc3[nH]ccc23)cn1` (single isomer, unassigned) [Example 3, 3-[1-(6-chloropyridin-2-yl)pyrrolidin-3-yl]-3-[4-(7H-pyrrolo[2,3-d]pyrimidin-4-yl)-1H-pyrazol-1-yl]propanenitrile] displayed a concentration for half-maximal inhibition (IC50) of less than 10 nM. Moreover, the JAK2/JAK1 in experiment [2] is greater than 10.

In the case of `CC(NC(=O)c1c(N)nn2cccnc12)c1cc(Cl)c2cncn2c1N1CCCC(O)C1` (centres unmarked) [Example 152, 2-Amino-N-(1-{8-chloro-5-[(3)-3-hydroxypiperidin-1-yl]imidazo[1,5-a]pyridin-6-yl}ethyl)pyrazolo[1,5-a]pyrimidine-3-carboxamide trifluoroacetate salt], the IC50 was less than 100 nM in experiment [3], less than 100 nM in experiment [4] and less than 500 nM in experiment [5] (THP-1 cells).

As for `CC(NC(=O)c1c(N)nn2cccnc12)c1cc(Cl)c2cncn2c1N1CCC(C#N)CC1` (centres unmarked) [Example 153, 2-Amino-N-{1-[8-chloro-5-(4-cyanopiperidin-1-yl)imidazo[1.5-a]pyridin-6-yl]ethyl}pyrazolo[1,5-a]pyrimidine-3-carboxamide trifluoroacetate salt], the results for the IC50 in experiment [3], in experiment [4] and in experiment [5] (THP-1 cells) were less than 100 nM, less than 100 nM and less than 500 nM, respectively.

With `CC(NC(=O)c1c(N)nn2cccnc12)c1cc(Cl)c2cncn2c1N1C[C@H](O)C[C@H](O)C1` (stereo partly drawn) [Example 155B, 2-Amino-N-(1-{8-chloro-5-[(3R,5S)-3,5-dihydroxypiperidin-1-yl]imidazo[1,5-a]pyridin-6-yl}ethyl)pyrazolo[1,5-a]pyrimidine-3-carboxamide trifluoroacetate salt], the concentration for half-maximal inhibition (IC50) was less than 100 nM in experiment [3], less than 100 nM in experiment [4] and less than 500 nM in experiment [5] (setting [6]).

In the case of `CC(NC(=O)c1c(N)nn2cccnc12)c1cc(Cl)c2cncn2c1N1C[C@@H](O)C[C@@H](F)C1` (stereo partly drawn) [Example 156, 2-Ammo-N-(1-{8-chloro-5-[(3R,5S)-3-fluoro-5-hydroxypiperidin-1-yl]imidazo[1,5-a]pyridin-6-yl}ethyl)pyrazolo[1,5-a]pyrimidine-3-carboxamide trifluoroacetate salt], the 50% inhibitory concentration (IC50) is less than 100 nM in experiment [3], less than 2000 nM in experiment [4] and less than 1000 nM in experiment [5] (THP-1 cells).

For `CC(NC(=O)c1c(N)nn2cccnc12)c1cc(Cl)c2cncn2c1N1C[C@H](O)C[C@H](C#N)C1` (stereo partly drawn) [Example 157, 2-Amino-N-(1-{8-chloro-5-[(3S,5R)-3-cyano-5-hydroxypiperidin-1-yl]imidazo[1,5-a]pyridin-6-yl}ethyl)pyrazolo[1,5-a]pyrimidine-3-carboxamide trifluoroacetate salt], the half-inhibitory concentration (IC50) in experiment [3] was less than 100 nM; in experiment [4], less than 500 nM; in experiment [5] (setting [6]) it was less than 1000 nM.

`CC(NC(=O)c1c(N)nn2cccnc12)c1cc(Cl)c2c(C#N)ncn2c1N1CCS(=O)(=O)C(C)C1` (centres unmarked) [Example 165, 2-Amino-N-(1-(8-chloro-1-cyano-5-(2-methyl-1,1-dioxidothiomorpholino)imidazo[1,5-a]pyridin-6-yl)ethyl)pyrazolo[1,5-a]pyrimidine-3-carboxamide trifluoroacetate salt]: the IC50 in experiment [3] is less than 100 nM; in experiment [4], less than 2000 nM; in experiment [5] (setting [6]) it was less than 500 nM.

In the case of `Nc1nn2cccnc2c1C(=O)NCc1cc(Cl)c2cncn2c1N1CCS(=O)(=O)CC1` [Example 166, 2-Amino-N-{[8-chloro-5-(1,1-dioxidothiomorpholin-4-yl)imidazo[1,5-a]pyridin-6-yl]methyl}pyrazolo[1,5-a]pyrimidine-3-carboxamide trifluoroacetate salt], the IC50 in experiment [3] was less than 100 nM; in experiment [4], less than 2000 nM; in experiment [5] (setting [6]), less than 1000 nM.

As to `CC1(C)CN(c2c(CNC(=O)c3c(N)nn4cccnc34)cc(Cl)c3cncn23)CCS1(=O)=O` [Example 168, 2-Amino-N-((8-chloro-5-(2,2-dimethyl-1,1-dioxido-thiomorpholino)imidazo[1,5-a]pyridin-6-yl)methyl) pyrazolo[1,5-a] pyrimidine-3-carboxamide trifluoroacetate salt], the results for the IC50 in experiment [3], in experiment [4] and in experiment [5] (THP-1 cells) were less than 100 nM, less than 2000 nM and greater than 1000 nM, respectively.

As to `CC1(C)CN(c2c(CNC(=O)c3c(N)nn4cccnc34)cc(Cl)c3c(Cl)ncn23)CCS1(=O)=O` [Example 170, 2-Amino-N-((1,8-dichloro-5-(2,2-dimethyl-1,1-dioxidothio-morpholino)imidazo [1,5-a]pyridin-6-yl)methyl) pyrazolo[1,5-a] pyrimidine-3-carboxamide trifluoroacetate salt], the IC50 in experiment [3] was less than 100 nM; in experiment [4], less than 2000 nM; in experiment [5] (THP-1 cells), greater than 1000 nM.

For the compound `Nc1nn2cccnc2c1C(=O)NCc1cc(Cl)c2cncn2c1N1CCCC1` [Example 171, 2-Amino-N-((8-chloro-5-(pyrrolidin-1-yl)imidazo[1,5-a]pyridin-6-yl)methyl)pyrazolo[1,5-a]pyrimidine-3-carboxamide trifluoroacetate salt], the IC50 in experiment [3] was less than 100 nM; in experiment [4], less than 500 nM; in experiment [5] (setting [6]), greater than 1000 nM.

`Nc1nn2cccnc2c1C(=O)NCc1cc(Cl)c2c(Cl)ncn2c1N1CCCC1` [Example 172, 2-Amino-N-((1,8-dichloro-5-(pyrrolidin-1-yl)imidazo[1,5-a]pyridin-6-yl)methyl)pyrazolo[1,5-a]pyrimidine-3-carboxamidetrifluoroacetate salt]: the IC50 in experiment [3] is less than 100 nM; in experiment [4] it was less than 500 nM; in experiment [5] (setting [6]) it was less than 1000 nM.

As to `N#Cc1ncn2c(N3CCCC3)c(CNC(=O)c3c(N)nn4cccnc34)cc(Cl)c12` [Example 173, 2-Amino-N-((8-chloro-1-cyano-5-(pyrrolidin-1-yl)imidazo[1,5-a]pyridin-6-yl)methyl)pyrazolo[1,5-a]pyrimidine-3-carboxamide trifluoroacetate salt], the half-inhibitory concentration (IC50) is less than 500 nM in experiment [3], less than 2000 nM in experiment [4] and greater than 1000 nM in experiment [5] (setting [6]).

Take `CC1CN(c2c(CNC(=O)c3c(N)nn4cccnc34)cc(Cl)c3c(C#N)ncn23)CCS1(=O)=O` (centres unmarked) [Example 174, 2-Amino-N-((8-chloro-1-cyano-5-(2-methyl-1,1-dioxidothiomorpholino)imidazo[1,5-a]pyridin-6-yl)methyl)pyrazolo[1,5-a]pyrimidine-3-carboxamide trifluoroacetate salt]: the figures for the IC50 in experiment [3], in experiment [4] and in experiment [5] (setting [6]) were less than 100 nM, less than 2000 nM and greater than 1000 nM, respectively.

Take `CCC(NC(=O)c1c(N)nn2cccnc12)c1cc(Cl)c2c(C#N)ncn2c1N1CCS(=O)(=O)C(C)C1` (centres unmarked) [Example 175, 2-Amino-N-(1-(8-chloro-1-cyano-5-(2-methyl-1,1-dioxidothiomorpholino)imidazo[1,5-a]pyridin-6-yl)propyl)pyrazolo[1,5-a]pyrimidine-3-carboxamide trifluoroacetate salt]: the IC50 in experiment [3] is less than 100 nM; in experiment [4], less than 2000 nM; in experiment [5] (setting [6]), less than 500 nM.

Regarding `CC1CN(c2c(C(NC(=O)c3c(N)nn4cccnc34)C3CC3)cc(Cl)c3c(C#N)ncn23)CCS1(=O)=O` (centres unmarked) [Example 176, 2-Amino-N-((8-chloro-1-cyano-5-(2-methyl-1,1-dioxidothio-morpholino)imidazo [1,5-a]pyridin-6-yl)(cyclopropyl)methyl)pyrazolo [1,5-a]pyrimidine-3-carboxamide trifluoroacetate salt], the IC50 in experiment [3] is less than 100 nM; in experiment [4] it was less than 2000 nM; in experiment [5] (setting [6]), less than 500 nM.

Turning to `CC1CN(c2c(C(NC(=O)c3c(N)nn4cccnc34)C(F)(F)F)cc(Cl)c3c(C#N)ncn23)CCS1(=O)=O` (centres unmarked) [Example 177, 2-Amino-N-(1-(8-chloro-1-cyano-5-(2-methyl-1,1-dioxidothiomorpholino)imidazo[1,5-a]pyridin-6-yl)-2,2,2-trifluoroethyl)pyrazolo[1,5-a]pyrimidine-3-carboxamide trifluoroacetate salt], the IC50 in experiment [3] was less than 100 nM; in experiment [4], no less than 2000 nM; in experiment [5] (setting [6]) it was less than 1000 nM.

In the case of `CCC(NC(=O)c1c(N)nn2cccnc12)c1cc(Cl)c2cncn2c1N1CCS(=O)(=O)CC1` (centres unmarked) [Example 179, 2-Amino-N-{1-[8-chloro-5-(1,1-dioxidothio-morpholin-4-yl)imidazo[1,5-a]pyridin-6-yl]propyl} pyrazolo[1,5-a] pyrimidine-3-carboxamide trifluoroacetate salt], the 50% inhibitory concentration (IC50) was less than 100 nM in experiment [3], less than 100 nM in experiment [4] and less than 500 nM in experiment [5] (THP-1 cells).
